Literature values, collected in patent US20230233634A1, “PROCYANIDINS FOR THE TREATMENT OF ENDOTHELIAL DYSFUNCTION TRIGGERED BY COVID-19” (priority 2020, published 2023).

System: iNOS (inducible nitric oxide synthase)
Conditions: direct anti-inflammatory activity

Question: Which “iNOS expression and nitrite production” value does the source give for `O=C1CCC(Cc2ccc(O)c(O)c2)O1` (stereo not shown) [M1, δ-(3,4-dihydroxy-phenyl)-γ-valerolactone] here?
Answer: reducing iNOS (inducible nitric oxide synthase) expression and excessive nitrite production
